Measurements published in patent US20100310484A1, “NOVEL PEPTIDES, USE THEREOF IN COSMETIC AND COSMECEUTIC APPLICATIONS, AND COMPOSITIONS COMPRISING SAME” (Innovactiv Inc., priority 2007, published 2010).
Lip = lipoyl residue of R or S configuration

Columns and labels:
[1] = tested on: Keratinocytes NCTC-2544; assay: UVA-induced oxidative lesions (formation of 8-oxo D guanosine) in keratinocytes; format: cell-based, human; conditions: 24 h + 30 min re-stimulation, UVA 15 J/cm^2, UVA-irradiated cells 100%, non treated cells 0%
Experimental: Material: Keratinocytes NCTC-2544.
Treatment: Keratinocytes were incubated with either peptide (A1 or B1) for 24 h, re-stimulated with the same peptide for 30 minutes and then irradiated with UVA (15 J/cm^2).
Results: The cells exposed to UVs are subjected to damages/lesions induced by oxidative stress. The oxydative damages or lesions were monitored with the formation of 8-oxo D guanosine and the effect of the peptides was expressed as a percentage of inhibition of the production of oxidative damages/lesions.

[2] = tested on: normal human melanocytes; assay: Comet test: internal photo protection against UVA- and UVB-induced DNA strand breaks; format: cell-based; conditions: peptide 3 × 10^−8 M, 2 h at 37° C., non treated cells 100%, irradiated cells 0%; for CGP (%) coefficient of genomic protection against UVA: then UVA 365 nm, 0.8 J/cm^2; for CGP (%) coefficient of genomic protection against UVB: then UVB 312 nm, 0.06 J/cm^2
Experimental: The proto protective ability of peptides A1 and B1 against UVA and UVB was evaluated using a Comet test according to the protocol of De Meo (De Meo et al. Mutation Res. 1991; 260; 295-306).
The comet test enables the quantification of DNA strand breaks induced by a genotoxic agent.
Material: Primary culture of normal human melanocytes.
Treatment: Cells were treated for 2 h at 37° C. with peptides A1 and B1 separately at 3×10^−8 M and then exposed to UVA (365 nm, 0.8 J/cm^2) or UVB (312 nm/0.06 J/cm^2).
Results are reported in Table 1 below as a coefficient of genomic protection against UVA or UVB (CGP %).

[3] = tested on: glutathione; assay: Glutathione regeneration in the presence of a superoxide anion by fluorometry (HRP/scopoletine); format: biochemical; conditions: glutathione 10^−4 to 5×10^−5 M with or without peptide 10^−4 to 5×10^−5 M, HRP 3 μg/ml, reading at 180 seconds
Description: Peroxydase (Horseradish peroxydase or HRP) transforms H2O2 into O2^•− which reacts on fluorescent scopoletine and transforms it into a non fluorescent species. A rapid decrease in fluorescence is observed as a function of O2^•− release. In the presence of a scavenger for radical O2^•− (such as glutathione), the decrease in fluorescence is less pronounced. (Antioxidant Characterisation, Methodology and Mechanism, Barry Halliwell, Biochemical Pharmacology, 49, 1341-1348, (1995)) and (The scopoletin assay for hydrogen peroxide, a review and a better method, Jean T. Corbett, J. Biochem. Biophys. Methods, 18, 297-308 (1989)).
Material: A fluorometer set at 394 nm (excitation state) with a slot of 6, and 455 nm (emitting state) with a slot of 8 was used. Continuous data collection was made over a period of 180 seconds. The data obtained at the end of 180 seconds was compared to that obtained with a negative control (without scavenger) and that with a positive control (without free radicals).
The tested mixture comprised HRP (3 μg/ml), scopoletine (5×10^−6M), glutathione (10^−4 to 5×10^−5M), with or without peptide B1 (10^−4 to 5×10^−5 M). An oxygenated water (H2O2) solution was added immediately before reading the first fluorescence measure.
Results are presented in FIG. 3 and are expressed as the percentage of radical scavenging activity as compared to the positive control. […]

[4] = tested on: IL-1α-induced IL-8 production; assay: Inhibition of IL-1α-induced IL-8 production (ELISA) in normal human dermal fibroblasts; format: cell-based; conditions: concomitant with IL-1α for 24 hours

Substance	% INHIBITION of the production of oxidative damages/lesions ([1]; peptide 1 nM)	% INHIBITION of the production of oxidative damages/lesions ([1]; peptide 100 nM)	CGP (%) coefficient of genomic protection against UVA [2]	CGP (%) coefficient of genomic protection against UVB [2]	glutathione regeneration activity (radical scavenging activity compared to positive control) [3]	INHIBITION of IL-8 production ([4]; peptide 10 pM)	INHIBITION of IL-8 production ([4]; peptide 1 nM)
Lip-Lys-Gly-His-Lys-NH2 (Lip-KGHK-NH2) [Peptide A1]	−27%	−53%	93%	46.2%			
Lip-His-DPhe-Arg-Trp-NH2 [Peptide B1]	−50%	−76%	69.9%	85.8%	displayed a glutathione regeneration activity	56%	60%
